From patent US20100056508A1, “AMINE DERIVATIVES AND THEIR USE IN BETA-2-ADRENORECEPTOR MEDIATED DISEASES” (ASTRAZENECA AB, priority 2006, published 2010) come the findings set out here.

Bounds are passed on as bounds.

Experiment [1] addresses T1, Adrenergic β2 (Homo sapiens, UniProt P07550).
T1 construct: Adherent H292 cells were removed from tissue culture flasks; endogenous in cells; host or cells: H292 cells
Briefly: Adrenergic β2 mediated cAMP production in H292 cells (AlphaScreen cAMP detection). The experiment is classed as cell-based. Also on record: key to β2 Int Act: fraction of formoterol maximum activity (formoterol = 1). Conditions: for β2 Int Act: Intrinsic Activity as a fraction relative to the maximum activity determined for formoterol; for EC50: cAMP production, 60 minutes at room temperature, 300 μM rolipram, read-out: β2 pEC50 (converted). The method, boiled down:
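H292 cells pre-treated 10 min with rolipram (300 μM final), then given agonist for 60 min at room temperature in HBSS/10 mM HEPES pH 7.4, 1.6% DMSO final. Lysate cAMP measured by AlphaScreen against a cAMP standard curve. Four-parameter fit gives pEC50; intrinsic activity relative to formoterol maximum.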
On the technique in general: cAMP levels reflect the balance of adenylyl cyclase and phosphodiesterase activity.

The target of experiment [2] is T2, recombinant human α1D receptor (Homo sapiens, UniProt P25100).
T2 construct: expressed in transfected cells; host or cells: human embryonic kidney 293 cells (HEK93 [sic]), membranes
T2 sequence (P25100 1-572): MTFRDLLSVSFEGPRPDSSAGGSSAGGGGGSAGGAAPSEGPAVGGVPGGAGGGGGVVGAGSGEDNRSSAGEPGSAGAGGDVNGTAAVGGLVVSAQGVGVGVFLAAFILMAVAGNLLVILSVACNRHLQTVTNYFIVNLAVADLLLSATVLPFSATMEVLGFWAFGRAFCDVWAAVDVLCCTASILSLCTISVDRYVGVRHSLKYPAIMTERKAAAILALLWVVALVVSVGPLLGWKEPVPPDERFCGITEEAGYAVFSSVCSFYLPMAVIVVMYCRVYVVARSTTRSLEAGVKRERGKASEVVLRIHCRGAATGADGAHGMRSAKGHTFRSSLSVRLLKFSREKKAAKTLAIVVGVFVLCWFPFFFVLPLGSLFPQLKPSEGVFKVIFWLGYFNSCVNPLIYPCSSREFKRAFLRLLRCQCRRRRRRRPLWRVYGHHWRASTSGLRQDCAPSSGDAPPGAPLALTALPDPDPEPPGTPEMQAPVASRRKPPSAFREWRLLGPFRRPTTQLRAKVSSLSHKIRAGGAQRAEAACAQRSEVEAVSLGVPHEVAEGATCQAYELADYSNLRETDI
In words: Adrenergic α1D selectivity assay, [3H]-prazosin binding to membranes. Particulars: inhibition of [3H]-prazosin binding, HEK cell membranes, read-out: α1 bind pIC50 (converted). In a few lines:
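Competition binding on HEK293 membranes with recombinant human α1D receptor, 0.3 nM [3H]-prazosin, 50 mM HEPES/1 mM EDTA pH 7.4, 2 h at room temperature; filtration and scintillation counting. Non-specific binding defined with 10 μM BMY7378. pIC50 from four-parameter logistic fit of specific-binding inhibition.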

T1 sequence (P07550 whole entry): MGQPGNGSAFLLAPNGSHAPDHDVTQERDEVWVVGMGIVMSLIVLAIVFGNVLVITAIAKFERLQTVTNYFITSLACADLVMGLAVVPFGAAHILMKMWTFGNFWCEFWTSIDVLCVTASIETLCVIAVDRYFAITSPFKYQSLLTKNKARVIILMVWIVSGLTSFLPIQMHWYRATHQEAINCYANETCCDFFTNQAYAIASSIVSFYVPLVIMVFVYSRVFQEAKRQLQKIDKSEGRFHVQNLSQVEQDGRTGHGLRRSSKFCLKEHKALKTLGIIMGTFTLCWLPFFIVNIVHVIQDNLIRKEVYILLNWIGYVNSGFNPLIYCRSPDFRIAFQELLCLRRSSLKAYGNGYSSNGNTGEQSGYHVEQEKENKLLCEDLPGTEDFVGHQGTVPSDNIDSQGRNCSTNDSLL

For the molecule `O=C1COc2c(CCNCCN(C(=O)CCNCCc3cccc(Cl)c3Cl)C3CCCCC3)ccc(O)c2N1` [Example 29, N-Cyclohexyl-3-(2,3-dichlorophenethylamino)-N-(2-(2-(5-hydroxy-3-oxo-3,4-dihydro-2H-benzo[b][1,4]oxazin-8-yl)ethylamino)ethyl)propanamide bis(trifluoroacetate)], in experiment [1], the “β2 Int Act” value was determined as 0.91 and the EC50 was 5.01 nM. Moreover, in experiment [2], the IC50 was 126 nM.

On to `O=C1COc2c(CCNCCN(C(=O)CCNCCc3ccc(Cl)c(Cl)c3)C3CCCCC3)ccc(O)c2N1` [Example 30, N-Cyclohexyl-3-(3,4-dichlorophenethylamino)-N-(2-(2-(5-hydroxy-3-oxo-3,4-dihydro-2H-benzo[b][1,4]oxazin-8-yl)ethylamino)ethyl)propanamide bis(trifluoroacetate)], for which, in experiment [1], the “β2 Int Act” value came out at 0.92 and the EC50 was 3.98 nM. The IC50 in experiment [2] is 251 nM.

As to `O=C1COc2c(CCNCCN(C(=O)CCNCCc3ccc(Cl)cc3Cl)C3CCCCC3)ccc(O)c2N1` [Example 31, N-Cyclohexyl-3-(2,4-dichlorophenethylamino)-N-(2-(2-(5-hydroxy-3-oxo-3,4-dihydro-2H-benzo[b][1,4]oxazin-8-yl)ethylamino)ethyl)propanamide bis(trifluoroacetate)], in experiment [1], the “β2 Int Act” value is listed as 0.94 and the EC50 was 6.31 nM. Also, the IC50 in experiment [2] was 158 nM.

`O=C1COc2c(CCNCCN(C(=O)CCNCCc3ccc(Cl)cc3)C3CCCCC3)ccc(O)c2N1` [Example 32, 3-(4-Chlorophenethylamino)-N-cyclohexyl-N-(2-(2-(5-hydroxy-3-oxo-3,4-dihydro-2H-benzo[b][1,4]oxazin-8-yl)ethylamino)ethyl)propanamide bis(trifluoroacetate)]: in experiment [1], the “β2 Int Act” value is recorded as 1.03 and the EC50 is 3.16 nM. In addition, the IC50 in experiment [2] is 251 nM.

On to `O=C1COc2c(CCNCCN(C(=O)CCNCCc3cc(F)cc(F)c3)C3CCCCC3)ccc(O)c2N1` [Example 35, N-Cyclohexyl-3-(3,5-difluorophenethylamino)-N-(2-(2-(5-hydroxy-3-oxo-3,4-dihydro-2H-benzo[b][1,4]oxazin-8-yl)ethylamino)ethyl)propanamide bis(trifluoroacetate)], for which, in experiment [1], the “β2 Int Act” value is recorded as 0.87 and the EC50 is 1.58 nM. Besides, the IC50 in experiment [2] was 398 nM.

Regarding `O=C1COc2c(CCNCCN(C(=O)CCNCCc3cccc(F)c3F)C3CCCCC3)ccc(O)c2N1` [Example 36, N-Cyclohexyl-3-(2,3-difluorophenethylamino)-N-(2-(2-(5-hydroxy-3-oxo-3,4-dihydro-2H-benzo[b][1,4]oxazin-8-yl)ethylamino)ethyl)propanamide bis(trifluoroacetate)], in experiment [1], the “β2 Int Act” value came out at 0.91 and the EC50 was 1.26 nM. Besides, the IC50 in experiment [2] was 398 nM.

Consider `O=C1COc2c(CCNCCN(C(=O)CCNCCc3ccc(F)c(Cl)c3)C3CCCCC3)ccc(O)c2N1` [Example 37, 3-(3-Chloro-4-fluorophenethylamino)-N-cyclohexyl-N-(2-(2-(5-hydroxy-3-oxo-3,4-dihydro-2H-benzo[b][1,4]oxazin-8-yl)ethylamino)ethyl)propanamide bis(trifluoroacetate)], for which, in experiment [1], the “β2 Int Act” value is reported as 0.89 and the EC50 was 2 nM. In experiment [2], the IC50 is 158 nM.

With `O=C1COc2c(CCNCCN(C(=O)CCNCCc3cc(F)ccc3F)C3CCCCC3)ccc(O)c2N1` [Example 38, N-Cyclohexyl-3-(2,5-difluorophenethylamino)-N-(2-(2-(5-hydroxy-3-oxo-3,4-dihydro-2H-benzo[b][1,4]oxazin-8-yl)ethylamino)ethyl)propanamide bis(trifluoroacetate)], in experiment [1], the “β2 Int Act” value is reported as 0.98 and the EC50 is 1.26 nM. Moreover, the IC50 in experiment [2] is 158 nM.

With `O=C1COc2c(CCNCCN(C(=O)CCNCCc3cccc(Cl)c3F)C3CCCCC3)ccc(O)c2N1` [Example 39, 3-(3-Chloro-2-fluorophenethylamino)-N-cyclohexyl-N-(2-(2-(5-hydroxy-3-oxo-3,4-dihydro-2H-benzo[b][1,4]oxazin-8-yl)ethylamino)ethyl)propanamide bis(trifluoroacetate)], in experiment [1], the “β2 Int Act” value turned out to be 0.98 and the EC50 was 1.58 nM. For the same molecule, the IC50 in experiment [2] is 501 nM.

For the molecule `Cc1cc(CCNCCC(=O)N(CCNCCc2ccc(O)c3c2OCC(=O)N3)C2CCCCC2)ccc1F` [Example 40, N-Cyclohexyl-3-(4-fluoro-3-methylphenethylamino)-N-(2-(2-(5-hydroxy-3-oxo-3,4-dihydro-2H-benzo[b][1,4]oxazin-8-yl)ethylamino)ethyl)propanamide bis(trifluoroacetate)], in experiment [1], the “β2 Int Act” value was 0.96 and the EC50 is 251 nM. In experiment [2], the IC50 is 31.6 nM.

Regarding `O=C1COc2c(CCNCCN(C(=O)CCNCCc3cc(F)cc(Cl)c3)C3CCCCC3)ccc(O)c2N1` [Example 41, 3-(3-Chloro-5-fluorophenethylamino)-N-cyclohexyl-N-(2-(2-(5-hydroxy-3-oxo-3,4-dihydro-2H-benzo[b][1,4]oxazin-8-yl)ethylamino)ethyl)propanamide (trifluoroacetate)], in experiment [1], the “β2 Int Act” value was determined as 0.95 and the EC50 is 3.16 nM. The IC50 in experiment [2] is 251 nM.

`O=C1COc2c(CCNCCN(C(=O)CCNCCc3ccc(F)c(F)c3)C3CCCCC3)ccc(O)c2N1` [Example 42, N-Cyclohexyl-3-(3,4-difluorophenethylamino)-N-(2-(2-(5-hydroxy-3-oxo-3,4-dihydro-2H-benzo[b][1,4]oxazin-8-yl)ethylamino)ethyl)propanamide bis(trifluoroacetate)]: in experiment [1], the “β2 Int Act” value was 0.9 and the EC50 was 2 nM. For the same molecule, the IC50 in experiment [2] was 200 nM.

For `O=C1COc2c(CCNCCN(C(=O)CCNCCc3ccc(C(=O)O)cc3)C3CCCCC3)ccc(O)c2N1` [Example 43, 4-(2-(3-(Cyclohexyl(2-(2-(5-hydroxy-3-oxo-3,4-dihydro-2H-benzo[b][1,4]oxazin-8-yl)ethylamino)ethyl)amino)-3-oxopropylamino)ethyl)benzoic acid bis(trifluoroacetate)], in experiment [1], the “β2 Int Act” value is on record as 0.97 and the EC50 is 31.6 nM. Further, the IC50 in experiment [2] was above 10000 nM.

Take `CCCC[C@@H](C)N(CCNCCc1ccc(O)c2c1OCC(=O)N2)C(=O)CCNCCc1cccc(Cl)c1` [Example 44, (R)-3-(3-Chlorophenethylamino)-N-(hexan-2-yl)-N-(2-(2-(5-hydroxy-3-oxo-3,4-dihydro-2H-benzo[b][1,4]oxazin-8-yl)ethylamino)ethyl)propanamide bis(trifluoroacetate)]: in experiment [1], the “β2 Int Act” value is 0.89 and the EC50 was 2 nM. Moreover, the IC50 in experiment [2] is 50.1 nM.

For `CCCC[C@@H](C)N(CCNCCc1ccc(O)c2c1OCC(=O)N2)C(=O)CCNCCc1ccc(Cl)cc1` [Example 45, (R)-3-(4-Chlorophenethylamino)-N-(hexan-2-yl)-N-(2-(2-(5-hydroxy-3-oxo-3,4-dihydro-2H-benzo[b][1,4]oxazin-8-yl)ethylamino)ethyl)propanamide bis(trifluoroacetate)], in experiment [1], the “β2 Int Act” value stood at 0.89 and the EC50 is 5.01 nM. Also, in experiment [2], the IC50 was 251 nM.

Take `CCCC[C@@H](C)N(CCNCCc1ccc(O)c2c1OCC(=O)N2)C(=O)CCNCCc1ccccc1Cl` [Example 46, (R)-3-(2-Chlorophenethylamino)-N-(hexan-2-yl)-N-(2-(2-(5-hydroxy-3-oxo-3,4-dihydro-2H-benzo[b][1,4]oxazin-8-yl)ethylamino)ethyl)propanamide bis(trifluoroacetate)]: in experiment [1], the “β2 Int Act” value was 0.89 and the EC50 was 1.26 nM. Besides, the IC50 in experiment [2] is 79.4 nM.

As to `CCCC[C@@H](C)N(CCNCCc1ccc(O)c2c1OCC(=O)N2)C(=O)CCNCCc1ccc(F)c(C)c1` [Example 47, (R)-3-(4-Fluoro-3-methylphenethylamino)-N-(hexan-2-yl)-N-(2-(2-(5-hydroxy-3-oxo-3,4-dihydro-2H-benzo[b][1,4]oxazin-8-yl)ethylamino)ethyl)propanamide bis(trifluoroacetate)], in experiment [1], the “β2 Int Act” value was found to be 0.89 and the EC50 was 1.58 nM. The IC50 in experiment [2] was 79.4 nM.
